Here are results for 7 compounds from patent publication US20070253994A1, “Intraspinal Drug Delivery Methods and Devices To Alleviate Chronic Pelvic Pain” (Medtronic, Inc., priority 2006, published 2007).

Experiment [1] relates to patients with chronic nonbacterial prostatitis. The settings on record: typically orally administered; cited from earlier work.
For experiment [2], the system named is micturition reflex of female rats. As to the kind of experiment: micturition reflex (cystometrogram) of female rats in the interstitial cystitis (IC) model of visceral pain, acetic acid bladder infusion. In kind it is in vivo, rat. The following applies: for frequency of acetic-acid-induced contractions compared with rate during saline infusion, both doses: both doses of Table 1.

[3] abbreviates: female rats, acetic acid infusion, intrathecal, doses of Table 1.
Setting [4] is: urethane-anesthetized female rats, 0.5% acetic acid bladder infusion, intrathecal, two ascending doses (Table 1).

“Also recorded” adds a separate entry of the source. Structures can show the parent of a compound that is named as a salt.

Turning to pentosan polysulfate, in experiment [1], the “patients for whom treatment proved successful” value is reported as “approximately 40%”.

`CNCCCN1c2ccccc2CCc2ccccc21` [Desipramine, Desipramine HCl]: in experiment [2] (setting [3]), the “amplitude of bladder contractions” value was “Neither of these drugs suppressed the amplitude of bladder contractions”. In addition, the “micturition reflex frequency at the higher dose” value in experiment [2] (female rats, acetic acid infusion, intrathecal, higher dose of Table 1) is reported as “effective at reducing the reflex frequency”. In experiment [2] (female rats, acetic acid infusion, intrathecal, lower dose of Table 1), the “micturition reflex frequency at the lower dose” value is reported as “not at the lower dose”. Further, the “frequency of acetic-acid-induced bladder contractions compared with frequency during saline infusion, higher dose” value in experiment [2] (female rats, intrathecal, higher dose of Table 1) is listed as “reduced the frequency of acetic-acid-induced bladder contractions to a level comparable to the normal frequency of contraction seen with saline infusion”. Further, the micturition reflex frequency entry in experiment [2] (setting [4]) was “suppressed micturition reflex frequency in a dose-dependent fashion”.

As for `CCCCN1CCCCC1C(=O)Nc1c(C)cccc1C` (stereo not drawn) [Bupivacaine, Bupivacaine HCl], the “amplitude of bladder contractions” value in experiment [2] (setting [3]) is recorded as “no effect on the amplitude of contraction”. In addition, in experiment [2] (female rats, intrathecal), the “frequency of acetic-acid-induced contractions compared with rate during saline infusion, both doses” value is recorded as “reduced the frequency of acetic-acid-induced contractions below the rate observed during saline infusion”. Besides, the micturition reflex frequency result in experiment [2] (urethane-anesthetized female rats, 0.5% acetic acid bladder infusion, intrathecal, two ascending doses (Table 1), HCl) is “suppressed micturition reflex frequency in a dose-dependent fashion; also recorded: appeared to suppress the micturition frequency at both doses”.

Take `NCC(CC(=O)O)c1ccc(Cl)cc1` (stereo not drawn) [Baclofen]: the “amplitude of bladder contractions” value in experiment [2] (setting [3]) was “Neither baclofen nor ketorolac reduced the amplitude of bladder contraction”. The “frequency of acetic-acid-induced contractions compared with rate during saline infusion, both doses” value in experiment [2] (female rats, intrathecal) is on record as “reduced the acetic-acid-induced contraction frequency in a dose-dependent manner without suppressing it below the normal rate of contraction observed with saline infusion”. Besides, the micturition reflex frequency result in experiment [2] (setting [4]) is listed as “statistically significant only at the higher dose”; in experiment [2] (urethane-anesthetized female rats, 0.5% acetic acid bladder infusion, intrathecal, two ascending doses (Table 1), listed as baclofen) it was “suppressed micturition reflex frequency in a dose-dependent fashion”.

With `O=C(c1ccccc1)c1ccc2n1CCC2C(=O)O` (stereo not drawn) [Ketorolac, Ketorolac tris], in experiment [2] (10 rats, intrathecal, lower dose (100 μg per Table 1)), the “rats exhibiting a lower reflex frequency, lower dose” value was 8 of 10. The “amplitude of bladder contractions” value in experiment [2] (setting [3]) is given as “Neither baclofen nor ketorolac reduced the amplitude of bladder contraction”. Further, the “frequency of acetic-acid-induced contractions compared with rate during saline infusion, both doses” value in experiment [2] (female rats, intrathecal) was “reduced the acetic-acid-induced contraction frequency in a dose-dependent manner without suppressing it below the normal rate of contraction observed with saline infusion”. For the same compound, in experiment [2] (ten rats tested, intrathecal, high dose (500 μg per Table 1)), the “rats in which reflex frequency was reduced, high dose” value is reported as “each of the ten rats tested”. For the same compound, in experiment [2] (setting [4]), the micturition reflex frequency entry is reported as “suppressed micturition reflex frequency in a dose-dependent fashion”.

As to `NCC1(CC(=O)O)CCCCC1` [Gabapentin], in experiment [2] (rat, in vivo), the “amplitude of bladder contractions” value is “Neither of these drugs suppressed the amplitude of bladder contractions”; the “frequency of acetic-acid-induced bladder contractions compared with frequency during saline infusion, higher dose” value is reported as “reduced the frequency of acetic-acid-induced bladder contractions to a level comparable to the normal frequency of contraction seen with saline infusion”; the micturition reflex frequency entry is given as “suppressed micturition reflex frequency in a dose-dependent fashion”; the “micturition reflex frequency at the higher dose” value was “effective at reducing the reflex frequency”. Further, the “micturition reflex frequency at the lower dose” value in experiment [2] (rat, in vivo) was “not at the lower dose”.

For `Clc1cccc(Cl)c1N=C1NCCN1` [Clonidine, Clonidine HCl], in experiment [2] (setting [4]), the micturition reflex frequency result is recorded as “no measurable effect”.
